Data reported in ChEMBL document CHEMBL1201862, “PubChem BioAssay data set” (2004).
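Dose response: 5 concentrations. Exposure: 48 h. Format: 96-well plates. Endpoint: linear interpolation; highest concentration if not reached. GI50 marks 50% less growth.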 Activity calls are given as the source filed them. Cut-off read from the data, not from the text of the source: active = GI50 up to about 1.1 µM and inactive = higher.

Tests used:
Assay in all cases: DTP human tumour cell line panel, 48 h
SK-MEL-5 = test system: SK-MEL-5
K562 = test system: K562
SW-620 = test system: SW-620
LOX IMVI = test system: LOX IMVI
TK-10 = test system: TK-10
M14 = test system: M14
NCI/ADR-RES = test system: NCI/ADR-RES
NCI-H23 = test system: NCI-H23
SK-MEL-2 = test system: SK-MEL-2
UACC-62 = test system: UACC-62
OVCAR-8 = test system: OVCAR-8
HL-60 = test system: HL-60
HT-29 = test system: HT-29
COLO 205 = test system: COLO 205
SF-539 = test system: SF-539
ACHN = test system: ACHN
RXF 393 = test system: RXF 393
UACC-257 = test system: UACC-257
CCRF-CEM = test system: CCRF-CEM
A498 = test system: A498

Measured: GI50

O=C1O[C@H](c2ccc3c(c2)OCO3)[C@H]2CO[C@@H](c3ccc4c(c3)OCO4)[C@@H]12
inactive: SK-MEL-5 42 µM | K562 60.1 µM | SW-620 > 100 µM | LOX IMVI > 100 µM | TK-10 > 100 µM | M14 > 100 µM | NCI/ADR-RES 74.1 µM | NCI-H23 78.7 µM | SK-MEL-2 > 100 µM | UACC-62 88.5 µM | OVCAR-8 > 100 µM | HL-60 > 100 µM | HT-29 77.6 µM | COLO 205 85.5 µM | SF-539 > 100 µM | ACHN > 100 µM | RXF 393 > 100 µM | UACC-257 54.6 µM

Cc1ccc(C)c(NC(=O)C(=O)CC(=O)C2CCOC2=O)c1 (configuration not stated)
inactive: SK-MEL-5 > 100 µM | K562 > 100 µM | SW-620 > 100 µM | LOX IMVI > 100 µM | TK-10 > 100 µM | M14 > 100 µM | NCI-H23 > 100 µM | CCRF-CEM > 100 µM | SK-MEL-2 > 100 µM | UACC-62 > 100 µM | A498 > 100 µM | OVCAR-8 > 100 µM | HL-60 > 100 µM | HT-29 > 100 µM | COLO 205 > 100 µM | SF-539 > 100 µM | ACHN > 100 µM | RXF 393 > 100 µM | UACC-257 > 100 µM

NC(CCCCCP(=O)(c1ccccc1)C1C=CC=CC1)C(=O)O (configuration not stated)
inactive: SK-MEL-5 > 100 µM | K562 > 100 µM | SW-620 > 100 µM | LOX IMVI > 100 µM | TK-10 > 100 µM | M14 > 100 µM | NCI/ADR-RES > 100 µM | NCI-H23 > 100 µM | CCRF-CEM > 100 µM | SK-MEL-2 > 100 µM | UACC-62 51.2 µM | OVCAR-8 > 100 µM | HL-60 > 100 µM | HT-29 > 100 µM | COLO 205 > 100 µM | SF-539 > 100 µM | ACHN > 100 µM | RXF 393 > 100 µM | UACC-257 > 100 µM

Oc1cc(-c2ccc(Oc3ccccc3)cc2)nc2cc3c(cc12)OCO3
inactive: SK-MEL-5 > 100 µM | K562 > 100 µM | SW-620 > 100 µM | LOX IMVI > 100 µM | TK-10 > 100 µM | M14 > 100 µM | NCI-H23 > 100 µM | CCRF-CEM > 100 µM | SK-MEL-2 > 100 µM | UACC-62 > 100 µM | A498 > 100 µM | OVCAR-8 > 100 µM | HL-60 > 100 µM | HT-29 > 100 µM | COLO 205 > 100 µM | SF-539 > 100 µM | ACHN > 100 µM | RXF 393 57.5 µM | UACC-257 > 100 µM

NS(=O)(=O)c1ccc(NC(=O)C2C(=O)C(=O)N(c3ccc(S(N)(=O)=O)cc3)C2=O)cc1 (configuration not stated)
inactive: SK-MEL-5 > 100 µM | K562 > 100 µM | SW-620 > 100 µM | LOX IMVI > 100 µM | TK-10 > 100 µM | M14 > 100 µM | NCI-H23 > 100 µM | CCRF-CEM > 100 µM | SK-MEL-2 > 100 µM | UACC-62 > 100 µM | A498 > 100 µM | OVCAR-8 > 100 µM | HL-60 > 10 µM | HT-29 > 100 µM | COLO 205 > 100 µM | SF-539 > 100 µM | ACHN > 100 µM | RXF 393 > 100 µM | UACC-257 > 100 µM

O=S(=O)(O)c1ccc2c(/N=N/c3ccc(Sc4ccc(/N=N/c5c(O)ccc6cc(S(=O)(=O)O)ccc56)cc4)cc3)c(O)ccc2c1
inactive: SK-MEL-5 > 100 µM | K562 > 100 µM | SW-620 > 100 µM | TK-10 > 100 µM | M14 > 100 µM | NCI/ADR-RES > 100 µM | NCI-H23 > 100 µM | CCRF-CEM > 100 µM | SK-MEL-2 > 100 µM | UACC-62 > 100 µM | OVCAR-8 > 100 µM | HL-60 > 100 µM | HT-29 > 100 µM | COLO 205 > 100 µM | SF-539 > 100 µM | ACHN > 100 µM | RXF 393 > 100 µM | UACC-257 > 100 µM

O=C(c1ccco1)c1ccccc1C(=O)c1ccco1
inactive: SK-MEL-5 > 100 µM | K562 > 100 µM | SW-620 > 100 µM | LOX IMVI > 100 µM | TK-10 > 100 µM | M14 > 100 µM | NCI-H23 > 100 µM | CCRF-CEM > 100 µM | SK-MEL-2 > 100 µM | UACC-62 > 100 µM | A498 > 100 µM | OVCAR-8 > 100 µM | HL-60 > 100 µM | HT-29 > 100 µM | COLO 205 > 100 µM | SF-539 > 100 µM | ACHN > 100 µM | RXF 393 > 100 µM | UACC-257 > 100 µM

CCOC(=O)C(O)(NC(C)=O)C(F)(F)F (configuration not stated)
inactive: SK-MEL-5 > 100 µM | K562 > 100 µM | SW-620 > 100 µM | LOX IMVI > 100 µM | TK-10 > 100 µM | M14 > 100 µM | NCI/ADR-RES > 100 µM | NCI-H23 > 100 µM | CCRF-CEM > 100 µM | SK-MEL-2 > 100 µM | UACC-62 > 100 µM | OVCAR-8 > 100 µM | HL-60 43.8 µM | HT-29 > 100 µM | COLO 205 > 100 µM | SF-539 > 100 µM | ACHN > 100 µM | RXF 393 > 100 µM | UACC-257 > 100 µM

CC1=C(C(=O)NCc2ccccc2)C(c2ccc(N(C)C)cc2)C(C(=O)NCc2ccccc2)=C(C)N1
inactive: SK-MEL-5 > 100 µM | K562 > 100 µM | SW-620 > 100 µM | TK-10 > 100 µM | M14 > 100 µM | NCI-H23 > 100 µM | CCRF-CEM > 100 µM | SK-MEL-2 > 100 µM | UACC-62 > 100 µM | A498 > 100 µM | OVCAR-8 > 100 µM | HL-60 > 100 µM | HT-29 > 100 µM | COLO 205 > 100 µM | SF-539 > 100 µM | ACHN > 100 µM | RXF 393 11.7 µM | UACC-257 > 100 µM

O=C(OCCN=C1c2ccccc2CCc2ccccc21)c1ccccc1
inactive: SK-MEL-5 > 100 µM | K562 > 100 µM | SW-620 > 100 µM | LOX IMVI > 100 µM | TK-10 > 100 µM | M14 > 100 µM | NCI/ADR-RES > 100 µM | NCI-H23 > 100 µM | CCRF-CEM > 100 µM | SK-MEL-2 > 100 µM | UACC-62 > 100 µM | OVCAR-8 > 100 µM | HL-60 > 100 µM | HT-29 > 100 µM | COLO 205 > 100 µM | SF-539 > 100 µM | ACHN > 100 µM | RXF 393 > 100 µM | UACC-257 > 100 µM

Cc1ccc(NC(=O)C2C(=O)N(c3ccc(C)c(C)c3)C(=O)/C2=N\NC(N)=O)cc1C (configuration not stated)
inactive: SK-MEL-5 > 100 µM | K562 52.7 µM | SW-620 > 100 µM | LOX IMVI > 100 µM | TK-10 > 100 µM | M14 > 100 µM | NCI-H23 42.8 µM | CCRF-CEM 73.8 µM | SK-MEL-2 96.4 µM | UACC-62 94.6 µM | A498 > 100 µM | OVCAR-8 62.2 µM | HL-60 81.5 µM | HT-29 > 100 µM | COLO 205 > 100 µM | SF-539 > 100 µM | ACHN > 100 µM | RXF 393 > 100 µM | UACC-257 > 100 µM

CC(=O)c1ccc(NC(=O)/C(=N\NC(N)=O)C(C#N)CC(C)(C)C=O)cc1 (configuration not stated)
inactive: SK-MEL-5 > 100 µM | K562 > 100 µM | SW-620 > 100 µM | LOX IMVI > 100 µM | TK-10 > 100 µM | M14 > 100 µM | NCI-H23 > 100 µM | CCRF-CEM > 100 µM | SK-MEL-2 > 100 µM | UACC-62 > 100 µM | A498 > 100 µM | OVCAR-8 > 100 µM | HL-60 > 100 µM | HT-29 > 100 µM | COLO 205 > 100 µM | SF-539 > 100 µM | ACHN > 100 µM | RXF 393 > 100 µM | UACC-257 > 100 µM

COc1ccc(-c2c(C(C)=O)c(C)n(C3OC(CO)C(O)C(O)C3O)c(=S)c2C#N)cc1 (configuration not stated)
inactive: SK-MEL-5 48.8 µM | K562 37.8 µM | SW-620 78.5 µM | LOX IMVI 45.5 µM | TK-10 > 100 µM | M14 60.1 µM | NCI/ADR-RES 93.5 µM | NCI-H23 68.1 µM | CCRF-CEM 38.3 µM | UACC-62 28 µM | OVCAR-8 58.2 µM | HL-60 41 µM | HT-29 > 100 µM | COLO 205 > 100 µM | SF-539 36.1 µM | ACHN 80.2 µM | RXF 393 73.1 µM | UACC-257 > 100 µM

O=C1OC(c2ccco2)=N/C1=C\c1ccc(Cl)c(Cl)c1
inactive: SK-MEL-5 > 100 µM | K562 > 100 µM | SW-620 > 100 µM | LOX IMVI > 100 µM | TK-10 66.7 µM | M14 > 100 µM | NCI-H23 > 100 µM | CCRF-CEM > 100 µM | SK-MEL-2 > 100 µM | UACC-62 > 100 µM | A498 > 100 µM | OVCAR-8 56.2 µM | HL-60 > 100 µM | HT-29 > 100 µM | COLO 205 > 100 µM | SF-539 50 µM | ACHN 60 µM | RXF 393 22 µM | UACC-257 > 100 µM
